Assays:
[1] = biological target: T1, hRIPK1 (aa 1-375) fusion protein (Homo sapiens, UniProt Q13546); experiment: Receptor-Interacting Protein Kinase 1 inhibition, ADP Glo assay (conversion of ATP to ADP due to autophosphorylation); assay type: biochemical; conditions: ATP 50 μM, 30 min preincubation, 240 min incubation, room temperature, DMSO 1%
T1 construct: hRIPK1 (aa 1-375) fusion protein
T1 sequence (Q13546 1-375): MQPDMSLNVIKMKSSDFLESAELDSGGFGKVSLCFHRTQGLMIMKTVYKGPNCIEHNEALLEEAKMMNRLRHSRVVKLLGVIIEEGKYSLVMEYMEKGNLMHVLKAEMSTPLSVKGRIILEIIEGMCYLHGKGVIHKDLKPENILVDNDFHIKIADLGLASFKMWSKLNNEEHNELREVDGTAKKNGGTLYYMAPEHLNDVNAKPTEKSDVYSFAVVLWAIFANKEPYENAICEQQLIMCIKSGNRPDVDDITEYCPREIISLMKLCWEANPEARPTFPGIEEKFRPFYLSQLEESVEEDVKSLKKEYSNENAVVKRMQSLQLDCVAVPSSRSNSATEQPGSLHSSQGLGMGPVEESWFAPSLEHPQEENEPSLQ
Summary of the method: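 The readout was ADP-Glo luminescence after a 240 min rt autophosphorylation reaction with 50 μM ATP, following 30 min preincubation of 3.6 μg/ml hRIPK1 (aa 1-375) fusion with compound at 33300-1.69 nM final in 1% DMSO. Values came from Levenberg-Marquardt nonlinear fits.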

U937 cells = experiment: Cellular assay in U937 cells to measure activity of RIPK1-inhibitors on cell death (necroptosis); assay type: cell-based; conditions: Homo sapiens, U-937, TNFα/zVAD.fmk induced cell death (necroptosis), overnight (18 to 24 hrs), 37° C., MTS readout

Structure (SMILES)	IC50 [1] [nM]	IC50 (U937 cells) [nM]
N#Cc1cncc([C@@H]2CCON2C(=O)[C@H]2CC[C@H](COc3ccc(C(N)=O)cn3)CC2)c1 [Compound 99, trans-6-[[4-[(3S)-3-(5-cyano-3-pyridyl)isoxazolidine-2-carbonyl]cyclohexyl]methoxy]pyridine-3-carboxamide]	70	209
NC(=O)c1cccc(OC[C@H]2CC[C@H](C(=O)N3OCC[C@H]3c3cnccn3)CC2)c1 [Compound 100, trans-3-[[4-[(3S)-3-pyrazin-2-ylisoxazolidine-2-carbonyl]cyclohexyl]methoxy]benzamide]	42	139
NC(=O)c1cc(OC[C@H]2CC[C@H](C(=O)N3OCC[C@H]3c3cnccn3)CC2)ccc1F [Compound 101, trans-2-fluoro-5-[[4-[(3S)-3-pyrazin-2-ylisoxazolidine-2-carbonyl]cyclohexyl]methoxy]benzamide]	40	140
NC(=O)c1ccc(OC[C@H]2CC[C@H](C(=O)N3OCC[C@H]3c3cnccn3)CC2)nc1 [Compound 102, trans-6-[[4-[(3S)-3-pyrazin-2-ylisoxazolidine-2-carbonyl]cyclohexyl]methoxy]pyridine-3-carboxamide]	47	257
N#Cc1ccc(OC[C@H]2CC[C@H](C(=O)N3OCC[C@H]3c3cnccn3)CC2)nc1 [Compound 103, trans-6-[[4-[(3S)-3-pyrazin-2-ylisoxazolidine-2-carbonyl]cyclohexyl]methoxy]pyridine-3-carbonitrile]	57	98
N#Cc1cc(F)cc(OC[C@H]2CC[C@H](C(=O)N3OCC[C@H]3c3cnccn3)CC2)c1 [Compound 104, trans-3-fluoro-5-[[4-[(3S)-3-pyrazin-2-ylisoxazolidine-2-carbonyl]cyclohexyl]methoxy]benzonitrile]	24	30
N#Cc1cc(F)cc([C@@H]2CCON2C(=O)[C@H]2C[C@H](n3ccc4cc(F)ccc43)C2)c1 [Compound 105, trans-3-fluoro-5-[(3S)-2-[3-(5-fluoroindol-1-yl)cyclobutanecarbonyl]isoxazolidin-3-yl]benzonitrile]	36	202
O=C([C@H]1C[C@H](n2ccc3cc(F)ccc32)C1)N1OCC[C@H]1c1cc(F)cc(F)c1 [Compound 106, trans-[(3S)-3-(3,5-difluorophenyl)isoxazolidin-2-yl]-[3-(5-fluoroindol-1-yl)cyclobutyl]methanone]	77	353
N#Cc1cc(F)cc([C@@H]2CCON2C(=O)[C@H]2C[C@@H](n3ccc4cc(F)ccc43)C2)c1 [Compound 107, cis-3-fluoro-5-[(3S)-2-[3-(5-fluoroindol-1-yl)cyclobutanecarbonyl]isoxazolidin-3-yl]benzonitrile]	19	214
O=C([C@H]1C[C@@H](n2ccc3cc(F)ccc32)C1)N1OCC[C@H]1c1cc(F)cc(F)c1 [Compound 108, cis-[(3S)-3-(3,5-difluorophenyl)isoxazolidin-2-yl]-[3-(5-fluoroindol-1-yl)cyclobutyl]methanone]	26	94
N#Cc1cc(F)cc([C@@H]2CCON2C(=O)[C@H]2C[C@@H](n3cc4cc(F)ccc4n3)C2)c1 [Compound 109, cis-3-fluoro-5-[(3S)-2-[3-(5-fluoroindazol-2-yl)cyclobutanecarbonyl]isoxazolidin-3-yl]benzonitrile]	55	745
O=C([C@H]1C[C@@H](n2cc3cc(F)ccc3n2)C1)N1OCC[C@H]1c1cc(F)cc(F)c1 [Compound 110, cis-[(3S)-3-(3,5-difluorophenyl)isoxazolidin-2-yl]-[3-(5-fluoroindazol-2-yl)cyclobutyl]methanone]	62	97
NC(=O)c1ccc(F)c(OC[C@H]2CC[C@H](C(=O)N3OCC[C@H]3c3cnccn3)CC2)c1 [Compound 111, trans-4-fluoro-3-[[4-[(3S)-3-pyrazin-2-ylisoxazolidine-2-carbonyl]cyclohexyl]methoxy]benzamide]	48	153
NC(=O)c1cc(F)cc(OC[C@H]2CC[C@H](C(=O)N3OCC[C@H]3c3cnccn3)CC2)c1 [Compound 112, trans-3-fluoro-5-[[4-[(3S)-3-pyrazin-2-ylisoxazolidine-2-carbonyl]cyclohexyl]methoxy]benzamide]	41	47
NC(=O)c1ccc(OC[C@H]2CC[C@H](C(=O)N3OCC[C@H]3c3cnccn3)CC2)c(F)c1 [Compound 113, trans-3-fluoro-4-[[4-[(3S)-3-pyrazin-2-ylisoxazolidine-2-carbonyl]cyclohexyl]methoxy]benzamide]	38	97
COc1cncc([C@@H]2CCON2C(=O)[C@H]2CC[C@H](COc3cccc(C(N)=O)c3)CC2)n1 [Compound 129, trans-3-[[4-[(3S)-3-(6-methoxypyrazin-2-yl)isoxazolidine-2-carbonyl]cyclohexyl]methoxy]benzamide]	11	28
Cc1nc([C@@H]2CCON2C(=O)[C@H]2CC[C@H](COc3cccc(C(N)=O)c3)CC2)cs1 [Compound 130, trans-3-[[4-[(3S)-3-(2-methylthiazol-4-yl)isoxazolidine-2-carbonyl]cyclohexyl]methoxy]benzamide]	37	98
NC(=O)c1cccc(OC[C@H]2CC[C@H](C(=O)N3OCC[C@H]3c3ccccn3)CC2)c1 [Compound 131, trans-3-[[4-[(3S)-3-(2-pyridyl)isoxazolidine-2-carbonyl]cyclohexyl]methoxy]benzamide]	47	236
